Key:
AsPC-1 cells = assay: NTS1R-specific cell uptake/internalization in AsPC-1 cells; type: cell-based, human; conditions: for specific cell uptake: AsPC-1 cells, 1 h incubation at 37 °C, NTS1R-specific (non-specific with 1 μM NT subtracted)
Description: (§1) The human pancreatic adenocarcinoma AsPC-1, PANC-1, MiaCapa-2, and Capan-1 cell lines were obtained from LGC Standards GmbH (Wesel, Germany). All culture reagents were purchased from Gibco BRL, Life Technologies (Grand Island, NY, USA) or from Biochrom KG Seromed (Berlin, Germany). Cells were grown in Roswell Park Memorial Institute-1640 Medium (RPMI-1640; AsPC-1 cells) or Dulbecco’s Modified Eagle’s Medium (DMEM; PANC-1, MiaCapa-2, and Capan-1 cells) with GlutaMAX-I, supplemented with 10% (v/v) fetal bovine serum (FBS), 100 U/mL penicillin, and 100 μg/mL streptomycin, and kept in a controlled humidified air containing 5% CO2 at 37 °C. Splitting of cells with a ratio of 1:3 to 1:5 was performed when approaching confluency, using a trypsin/EDTA (0.05%/0.02% w/v) solution.
For internalization assays, AsPC-1, PANC-1, MiaCapa-2, and Capan-1 cells were seeded in six-well plates (≈1 × 10^6 cells per well) the day before the experiment. Cells were rinsed twice with ice-cold internalization medium (IM; culture medium supplemented by 1% (v/v) FBS), and then fresh IM was added (1.2 mL) at 37 °C, followed by test radiopeptide (250 fmol total peptide in 150 μL IPBS (0.5% w/v BSA–PBS,) 100,000–200,000 cpm). Non-specific internalization was determined by a parallel triplicate series containing 1 μM NT. After incubation at 37 °C, the plates were placed on ice, the medium was collected, and the plates were washed with IPBS (1 mL). Membrane-bound fractions were collected by incubating the cells 2 × 5 min in acid-wash solution (2 × 600 µL; 50 mM glycine buffer pH 2.8, 0.1 M NaCl) at room temperature. […] Sample radioactivity was measured on the gamma counter, and the percentage of specific internalized and membrane-bound fractions were calculated with Microsoft Excel (after subtracting the non-specific from the overall internalized and membrane-bound counts). Results represent the specific mean internalized ± SD of total added radioactivity per well from three experiments performed in triplicate. […]

[1] = mouse, in vivo; cited from earlier work
PANC-1 cells = assay: NTS1R-specific cell uptake/internalization in PANC-1 cells; type: cell-based, human
Description: as §1, with “Splitting of cells with a ratio of 1:3 to 1:5 was performed when approaching confluency, using a trypsin/EDTA (0.05%/0.02% w/v) solution.” left out
(§2) For internalization assays, AsPC-1, PANC-1, MiaCapa-2, and Capan-1 cells were seeded in six-well plates (≈1 × 10^6 cells per well) the day before the experiment. […] Non-specific internalization was determined by a parallel triplicate series containing 1 μM NT. […] Sample radioactivity was measured on the gamma counter, and the percentage of specific internalized and membrane-bound fractions were calculated with Microsoft Excel (after subtracting the non-specific from the overall internalized and membrane-bound counts). Results represent the specific mean internalized ± SD of total added radioactivity per well from three experiments performed in triplicate. […]

MiaCapa-2 cells = assay: NTS1R-specific cell uptake/internalization in MiaCapa-2 cells; type: cell-based, human; conditions: 1 h incubation at 37 °C
Description: as §1, with “Splitting of cells with a ratio of 1:3 to 1:5 was performed when approaching confluency, using a trypsin/EDTA (0.05%/0.02% w/v) solution.” left out
as §2

Capan-1 cells = assay: NTS1R-specific cell uptake/internalization in Capan-1 cells; type: cell-based, human; conditions: 1 h incubation at 37 °C
Description: as §1, with “Splitting of cells with a ratio of 1:3 to 1:5 was performed when approaching confluency, using a trypsin/EDTA (0.05%/0.02% w/v) solution.” left out
as §2

WiDr cells = test system: WiDr cells; design: method as in PMID 32526874; conditions: 1 h incubation ref 39; cited from earlier work
AsPC-1 xenografts = conditions: mouse, in vivo; cited from earlier work
NTS1R [2] = test system: NTS1R; design: method as in PMID 17594090; conditions: read-out: receptor affinity (IC50); cited from earlier work
NTS1R [3] = test system: NTS1R; design: method as in PMID 21883013; conditions: small number of patients ref 30; cited from earlier work
[4] = mouse, 2 h; cited from earlier work

[^99mTc]Tc–[N4–βAla^7,Dab^9]NT(7–13) [[^99mTc]Tc–DT5]
specific cell uptake (AsPC-1 cells): 8.4% ± 0.8% | renal values in mice [1]: high renal values

[^99mTc]Tc–[N4–Gly^7]NT(7–13) [[^99mTc]Tc–DT1]
I, internalized fraction, specific (AsPC-1 cells; AsPC-1, 1 h incubation, of total-added activity): 14.11±2.28 | specific cell uptake (AsPC-1 cells): 15.2% ± 2.6% | I, internalized fraction, specific (PANC-1 cells; PANC-1, 1 h incubation, of total-added activity): 7.30±2.41 | specific cell uptake (PANC-1 cells; PANC-1 cells, 1 h incubation at 37 °C, NTS1R-specific): 8.1% ± 2.8% | specific cell uptake (MiaCapa-2 cells): 2.7% ± 0.3% | specific cell uptake (Capan-1 cells): 0.4% ± 0.1% | specific cell binding (WiDr cells): 10.1 ± 2.3%

[^68Ga]Ga–NODAGA–Lys(Cy5**)–AEEAc–[Me–Arg^8,Tle^12]NT(7−13)
kidney values (AsPC-1 xenografts): 20 % IA/g

[^99mTc]Tc–[N4–βAla^7,Dab^9,Tle]NT(7–13) [[^99mTc]Tc–DT6]
IC50 (NTS1R [2]): 0.08 ± 0.02 nM | specific cell binding (WiDr cells): 1.0 ± 0.4% | NTS1R targeting of tumor lesions in patients (NTS1R [3]): poor NTS1R targeting of tumor lesions | stability in mice plasma, intact [4]: > 90%

Ac–Lys(1,4,7,10-tetraazacyclododecane–1,4,7,10-tetraacetic acid)–Pro–Me–Arg–Arg–Pro–Tyr–Tle–Leu–OH [[^68Ga]Ga–DOTA–NT–20.3]
kidney values (AsPC-1 xenografts): about the same values

Reference: publication PMC7663772, “Optimizing the Profile of [^99mTc]Tc–NT(7–13) Tracers in Pancreatic Cancer Models by Means of Protease Inhibitors” (International Journal of Molecular Sciences, 2020)
